# Laboratory results published in patent US12091718B2, “Genetically encoded biosensors for detection of polyketides” (priority 2016, dated 2024).
# Tests used:
# [1] = target: T1, MphR variant A16T/T154M/M155K with E7 RBS mutation (M2D6-E7RBS) (Escherichia coli, UniProt Q9EVJ6, A16T/M155K/T154M); test: MphR-GFP biosensor dose-response, M2D6-E7RBS; assay type: cell-based
# T1 construct: E. coli GFP biosensor
# MphR variant R122T = MphR variant R122T (Escherichia coli, UniProt Q9EVJ6, R122T); test: MphR-GFP biosensor dose-response, R122T; assay type: cell-based; conditions: for Hill coefficient: Table 8
# [2] = target: wild-type MphR (MphR(A), macrolide biosensor transcription factor), SEQ ID NO: 2 (gene SEQ ID NO: 1, 28) (Escherichia coli, UniProt Q9EVJ6); test: cell-based; conditions: for activation of GFP expression under control of WT MphR: result in words
# Source text: (§1) The sensitivity of biosensors often requires tailoring to meet specific needs. […] A library of MphR gene mutations and variants was created by error-prone PCR (epPCR).
# Molecular Biosystems. […] Previous literature reports various induction ranges for MphR-based biosensors depending on the plasmid construct.
# Three and five site saturation mutagenesis libraries of the MphR gene that targeted residues of the ligand binding domain were generated using the Quikchange Multi Site-Directed mutagenesis kit (Agilent) and designated QCMS3 and QCMS5, respectively. A third library was generated via error-prone PCR (epPCR) with an average of two amino acid mutations per library clone. Libraries were transformed into E. coli TOP10 cells with plasmid pJZ12 (See FIG. 16 and sequence below) containing genes MphA and mrx and subjected to an initial round of negative sorting in the absence of added ligand via Fluorescence Activated Cell Sorting (FACS) to eliminate variants that are constitutively expressing GFP.
# In Table 1, Hill functions were used to derive biosensor transfer functions. K1/2 is the inducer concentration at half maximal induction. Cooperativity is derived from the Hill function to indicate cooperative ligand binding between protein monomers of the MphR dimer. […] The linear range of detection is the linear portion of the dose-response curve with a slope R^2=0.95 or higher.
# [3] = target: T2, MphR variant G76C (clone A3/epA3; nt A1G in RBS, aa G76C; SEQ ID NO: 3, 29) (Escherichia coli, UniProt Q9EVJ6, G76C); test: MphR-GFP biosensor dose-response, clone G76C (A3); assay type: cell-based; conditions: Table 1
# T2 construct: pMLGFP-derived plasmid, E. coli TOP10 GFP biosensor
# Source text: (§2) K1/2 is the inducer concentration at half maximal induction. Cooperativity is derived from the Hill function to indicate cooperative ligand binding between protein monomers of the MphR dimer. Dynamic range is the GFP maximal response minus the minimum GFP response, which in all cases was the response with no ligand. The linear range of detection is the linear portion of the dose-response curve with a slope R^2=0.95 or higher.
# [4] = system: MphR variant G76C (clone A3/epA3; nt A1G in RBS, aa G76C; SEQ ID NO: 3, 29); test: MphR-GFP biosensor dose-response, clone G76C (A3); assay type: cell-based, Escherichia coli; conditions: Table 11
# Source text: as §2
# [5] = target: T3, MphR variant V90I (clone E7/epE7; nt A4T in RBS, aa V90I; SEQ ID NO: 4, 30) (Escherichia coli, UniProt Q9EVJ6, V90I); test: MphR-GFP biosensor dose-response, clone V90I (E7); assay type: cell-based; conditions: Table 1
# T3 construct: E. coli TOP10 with pJZ12
# Source text: as §2
# [6] = system: MphR variant V90I (clone E7/epE7; nt A4T in RBS, aa V90I; SEQ ID NO: 4, 30); test: MphR-GFP biosensor dose-response, clone V90I (E7); assay type: cell-based, Escherichia coli; conditions: Table 11
# Source text: as §2
# [7] = target: T4, MphR variant T17R (QCMS3D6; SEQ ID NO: 6, 34) (Escherichia coli, UniProt Q9EVJ6, T17R); test: MphR-GFP biosensor dose-response, clone T17R; assay type: cell-based
# T4 construct: E. coli TOP10 GFP biosensor
# Source text: (§3) In Table 1, Hill functions were used to derive biosensor transfer functions. K1/2 is the inducer concentration at half maximal induction. Cooperativity is derived from the Hill function to indicate cooperative ligand binding between protein monomers of the MphR dimer. Dynamic range is the GFP maximal response minus the minimum GFP response, which in all cases was the response with no ligand. The linear range of detection is the linear portion of the dose-response curve with a slope R^2=0.95 or higher.
# [8] = target: T5, MphR variant T27G/Q65M (QCMS5B4; SEQ ID NO: 8, 36) (Escherichia coli, UniProt Q9EVJ6, Q65M/T17G); test: MphR-GFP biosensor dose-response, clone T27G/Q65M; assay type: cell-based
# T5 construct: E. coli TOP10 cells with plasmid pJZ12
# Source text: as §3
# [9] = target: T6, MphR variant T27A/M59E (QCMS5D7; SEQ ID NO: 9, 37) (Escherichia coli, UniProt Q9EVJ6, M59E/T17A); test: MphR-GFP biosensor dose-response, clone T27A/M59E; assay type: cell-based; conditions: Table 1
# T6 construct: E. coli TOP10 GFP biosensor
# Source text: as §3
# [10] = system: MphR variant T27A/M59E (QCMS5D7; SEQ ID NO: 9, 37); test: MphR-GFP biosensor dose-response, clone T27A/M59E; assay type: cell-based, Escherichia coli; conditions: Table 11
# Source text: as §3
# [11] = target: T7, wild-type MphR with RBS mutations A1T/G2T/A3C (smRBS1A1, RBS TTCAGGT; SEQ ID NO: 53) (Escherichia coli, UniProt Q9EVJ6); test: MphR-GFP biosensor dose-response, smRBS1A1; assay type: cell-based
# T7 construct: GFP reporter in E. coli
# Source text: as §1
# [12] = target: T8, wild-type MphR with mutated RBS CTGAGGT (smRBS1G6) (Escherichia coli, UniProt Q9EVJ6); test: MphR-GFP biosensor dose-response, smRBS1G6; assay type: cell-based; conditions: Table 4
# T8 construct: GFP reporter in E. coli
# Source text: as §1
# [13] = target: T9, wild-type MphR with mutated RBS AAAGGTT (smRBS2E1; SEQ ID NO: 55) (Escherichia coli, UniProt Q9EVJ6); test: MphR-GFP biosensor dose-response, smRBS2E1; assay type: cell-based; conditions: Table 4
# T9 construct: GFP reporter in E. coli
# Source text: as §1
# [14] = target: MphR variant S106F (pikB1, D3; SEQ ID NO: 10, 38) (Escherichia coli, UniProt Q9EVJ6, S106F); test: cell-based; assay type: cell-based; conditions: for times more sensitive vs. WT: Table 11
# Source text: as §1
# To test this, the aglycone 6-deoxyerythronolide B (6dEB) was produced via an engineered E. coli strain and purified by flash chromatography. […] To extend this to other systems, the ability of MphR was examined to detect macrolide antibiotics from S. venezuelae.
# The ability of the MphR clone “PikB1” to detect a Solithromycin biosynthetic intermediate (see structure below) was determined.
# [15] = target: T10, MphR variant A16T/T154M/M155K (M2D6; SEQ ID NO: 16, 44) (Escherichia coli, UniProt Q9EVJ6, A16T/M155K/T154M); test: MphR-GFP biosensor dose-response, M2D6; assay type: cell-based; conditions: result in words
# T10 construct: GFP under PmphR as reporter
# Source text: In many cases, it is necessary to determine the presence and concentration of a given polyketide in the presence of other structurally related molecules. Accordingly, the selectivity of MphR requires tailoring towards target molecules.
# [16] = target: T11, wild-type MphR with E7 ribosome binding site mutation only (WT E7-RBS; SEQ ID NO: 32) (Escherichia coli, UniProt Q9EVJ6); test: cell-based
# T11 construct: GFP reporter in E. coli
# Source text: as §1
# To confirm this, new versions of A3 and E7 were constructed that either only included the RBS mutations or the amino acids for each clone.
compound,measurement,setting,value
"CC[C@H]1OC(=O)[C@H](C)[C@@H](O[C@H]2C[C@@](C)(OC)[C@@H](O)[C@H](C)O2)[C@H](C)[C@@H](O[C@@H]2O[C@H](C)C[C@H](N(C)C)[C@H]2O)[C@](C)(OC)C[C@@H](C)C(=O)[C@H](C)[C@@H](O)[C@]1(C)O [clarithromycin, 6-O-methylerythromycin]",EC50,[1],12.7 µM
same,EC50,MphR variant R122T,24.2 µM
same,Hill coefficient,MphR variant R122T,3.03
CC[C@H]1OC(=O)[C@H](C)[C@@H](O[C@H]2C[C@@](C)(OC)[C@@H](O)[C@H](C)O2)[C@H](C)[C@@H](O[C@@H]2O[C@H](C)C[C@H](N(C)C)[C@H]2O)[C@](C)(O)C[C@@H](C)C(=O)[C@H](C)[C@@H](O)[C@]1(C)O [erythromycin A],Cooperativity,"[2]; Table 1, derived from the Hill function",4.44 ± 1.52
same,Hillc,[2]; Table 4,3.6 ± 0.3
same,Hill coefficient,[2]; Table 8,3.52
same,Cooperativity,[2]; Table 9,3.39
same,activation of GFP expression under control of WT MphR,[2],good activator
same,Cooperativity,[3],1.80 ± 0.01
same,times more sensitive vs. WT,[4],3.6 times more
same,Cooperativity,[5],2.84 ± 0.42
same,times more sensitive vs. WT,[6],3.0 times more
same,Cooperativity,[7]; Table 1,3.16 ± 0.13
same,times more sensitive vs. WT,[7]; Table 11,2.4 times more
same,Cooperativity,[8]; Table 1,2.92 ± 0.17
same,times more sensitive vs. WT,[8]; Table 11,1.5 times more
same,Cooperativity,[9],2.59 ± 0.04
same,times more sensitive vs. WT,[10],2.0 times more
same,Hillc,[11]; Table 4,1.7 ± 0.1
same,times more sensitive vs. WT,[11]; Table 11,9.9 times more
same,Hillc,[12],5.4 ± 1.2
same,Hillc,[13],3.9 ± 0.5
same,enhanced sensitivity,[1],2 fold
same,Hill coefficient,MphR variant R122T,2.39
CC[C@H]1OC(=O)[C@H](C)[C@@H](O[C@H]2C[C@@](C)(O)[C@@H](O)[C@H](C)O2)[C@H](C)[C@@H](O[C@@H]2O[C@H](C)C[C@H](N(C)C)[C@H]2O)[C@](C)(O)C[C@@H](C)C(=O)[C@H](C)[C@@H](O)[C@]1(C)O [erythromycin C],activation of GFP expression under control of WT MphR,[2],activate MphR-WT in a nearly identical manner
CC[C@H]1OC(=O)[C@H](C)[C@@H](O[C@H]2C[C@@](C)(OC)[C@@H](O)[C@H](C)O2)[C@H](C)[C@@H](O[C@@H]2O[C@H](C)C[C@H](N(C)C)[C@H]2O)[C@](C)(O)C[C@@H](C)C(=O)[C@H](C)[C@@H](O)[C@H]1C [erythromycin B],EC50,"[2]; K1/2, Table 9",1.72 µM
same,Cooperativity,[2]; Table 9,1.99
same,activation of GFP expression under control of WT MphR,[2],activate MphR-WT in a nearly identical manner
CC[C@H]1OC(=O)[C@H](C)[C@@H](O[C@@H]2O[C@H](C)C[C@H](N(C)C)[C@H]2O)[C@@H](C)C[C@@H](C)C(=O)/C=C/[C@H]1C [YC-17],EC50,"[2]; K1/2, Table 12",19.6 ± 0.6 µM
same,EC50,[14],0.49 ± 0.05 µM
same,times more sensitive vs. WT,[14],40 times more
CC[C@H]1OC(=O)[C@H](C)C(=O)[C@H](C)[C@@H](O[C@@H]2O[C@H](C)C[C@H](N(C)C)[C@H]2O)[C@@H](C)C[C@@H](C)C(=O)/C=C/[C@H]1C [narbomycin],fold induction at 5 µM,[2]; read-out: Activation ratio (5 uM/0 uM),4
"CC[C@H]1OC(=O)[C@H](C)[C@@H](O)[C@H](C)[C@@H](O)[C@@H](C)C[C@@H](C)C(=O)[C@H](C)[C@@H](O)[C@H]1C [Compound 6dEB, 6-deoxyerythronolide B]",activation of GFP expression under control of WT MphR,[2],failed to activate GFP expression
CC[C@H]1OC(=O)[C@H](C)[C@@H](O[C@H]2C[C@@](C)(OC)[C@@H](O)[C@H](C)O2)[C@H](C)[C@@H](O[C@@H]2O[C@H](C)C[C@H](N(C)C)[C@H]2O)[C@](C)(OC)C[C@@H](C)C(=O)/C(C)=C/[C@]1(C)O [Solithromycin biosynthetic intermediate],EC50,"[2]; K1/2, FIG. 20",70.9 µM
same,detects the intermediate at concentrations as low as,[14]; FIG. 20,0.1 µM
same,times more sensitive vs. WT,[14],52 times more
"CC[C@H]1OC(=O)[C@H](C)[C@@H](O)[C@@H](C)C[C@@H](C)C(=O)/C=C/[C@H]1C [Compound 10-DML, 10-deoxymethynolide]",activation of GFP expression under control of WT MphR,[2],neither WT or D3 MphR is activated
same,activation,"[14]; result in words, FIG. 4C",neither WT or D3 MphR is activated
CC[C@H]1OC(=O)[C@H](C)[C@@H](O[C@H]2C[C@@](C)(OC)[C@@H](O)[C@H](C)O2)[C@H](C)[C@@H](O[C@@H]2O[C@H](C)C[C@H](N(C)C)[C@H]2O)[C@](C)(O)C[C@@H](C)/C(=N\OCOCCOC)[C@H](C)[C@@H](O)[C@]1(C)O [roxithromycin],EC50,"[2]; K1/2, Table 6",67.2 ± 3.41 µM
same,EC50,"[2]; K1/2, Table 7",74.1 µM
same,activation,[15],little to no activation
CC[C@H]1OC(=O)[C@H](C)[C@@H](O[C@H]2C[C@@](C)(OC)[C@@H](O)[C@H](C)O2)[C@H](C)[C@@H](O[C@@H]2O[C@H](C)C[C@H](N(C)C)[C@H]2O)[C@](C)(O)C[C@@H](C)CN(C)[C@H](C)[C@@H](O)[C@]1(C)O [azithromycin],EC50,"[2]; K1/2, Table 6",0.6 ± 0.02 µM
same,EC50,"[2]; K1/2, Table 7",0.6 µM
same,activation,[15],little to no activation
CC[C@H]1OC(=O)[C@H](C)C(=O)[C@H](C)[C@@H](O[C@@H]2O[C@H](C)C[C@H](N(C)C)[C@H]2O)[C@@H](C)C[C@@H](C)C(=O)/C=C/[C@]1(C)O [pikromycin],EC50,"[2]; K1/2, Table 5",97 ± 2 µM
same,EC50,"[2]; K1/2, Table 14",96.6 ± 2.7 µM
same,EC50,[16],50 ± 20 µM
same,EC50,[11],48 ± 5 µM
same,"sensitivity improved, compared to the wild-type MphR",[11],2 fold
same,EC50,[14],0.81 ± 0.02 µM
same,times more sensitive vs. WT,[14],118 times more
